From patent publication US5104859A, “Continuous administration of adenosine to reduce pulmonary vascular resistance” (priority 1990, dated 1992)
“Also recorded” adds a separate entry of the source. Like-named read-outs stand apart in the source and are kept apart here.

Tests used:
[1] = Purine levels in arterial plasma before, during and after adenosine-induced controlled hypotension (HPLC); details: for concentration: Table I, mean ± SEM
Description: (§1) Blood gases were measured with appropriate electrodes for pH, PCO2, and PO2 (Radiometer, Copenhagen). The hemoglobin concentration was determined spectrophotometrically. Samples for the determination of adenosine and its metabolites were collected as described by Sollevi et al., Acta Physiol. Scand., 120: 171-76 (1984). Adenosine and inosine were purified and analyzed by HPLC as described by Fredholm and Sollevi., J. Physiol. (London), 313: 351-67 (1981). Hypoxanthine, xanthine, and uric acid were analyzed by HPLC according to the method of Schweinsberg and Loo., J. Chromatogr., 181: 103-7 (1980). Arterial levels of dipyridamole were determined by HPLC. J. Chromatogr., 162: 98-103 (1979). Blood lactate was measured according to Tfelt-Hansen and Siggard-Andersen. Scand. Clin. Lab. Invest., 27:15-19 (1971).
(§2) Measurements and blood samplings were performed immediately before hypotension, as late as possible during hypotension (1-5 min before terminating the infusion) and approximately 30 min after the hypotensive period.
(§3) Dipyridamole (5 mg. per ml) was infused iv (0.3-0.4 mg. per kg. over a period of 5-10 min) approximately 20 minutes prior to the induction of controlled hypotension. […] (See Pedersen, J. Chromatogr., 162: 98-103 (1979).
(§4) The infusion was started at a rate of 0.01 mg. per kg. per minute, which was doubled at 15 second intervals until the desired MABP level of 40-50 mmHg was reached. […] Serum creatinine was determined before and on two consecutive days after operation. The standard ECG was recorded the day before and the day after operation.
(§5) The statistical significance (control 1 vs. adenosine and control 1 vs. control 2) was determined by Student's t test for paired data. A P value of <0.05 was regarded as significant.
The purine levels of nine of the patients were determined prior to, during and after adenosine-induced controlled hypotension.

[2] = Plasma adenosine and metabolite concentrations during cardiopulmonary bypass (HPLC); details: for concentration: read-out: Venous concentration, 20 min
Description: In six cases the plasma adenosine levels were determined by high performance liquid chromatography (HPLC) (Fredholm and Sollevi, J. Physiol. (London), 313: 351-67 (1981) in arterial and in venous (venous lines to the oxygenator) blood. The adenosine metabolites inosine, hypoxanthine and uric acid were also determined by HPLC. The samples were collected as previously described (Sollevi, Acta. Physiol. Scand., 121: 165-72 (1984) at the intervals of 10, 20, 40 and 80 minutes during CPB and 20 minutes after CPB.
Statistical significance (controls v. adenosine group) was determinted with Student's t-test for unpaired data. For significance within the groups the Wilcoxon Rank Sum test was used. p […] 0.05 was regarded as significant.

cardiovascular system = details: cited from earlier work
myocardial blood flow = details: investigated in abdominal vascular surgery; words; cited from earlier work
[3] = tested on: systemic arterial blood pressure and central hemodynamics; test: Controlled hypotension during anesthesia: central hemodynamics (dipyridamole-pretreated cerebral aneurysm surgery patients); details: in five of the patients
Description: One hour before the operation the patients were premedicated orally with diazepam (10-20 mg.) Atropine (0.5 mg) and droperidol (0.1 mg. per kg.) were given intravenously before induction of anesthesia. Induction was started with thiopental (5 mg. per kg) followed by phenoperidine (1-2 mg), a synthetic opiate with pharmacodymanics resembling fentanyl but with a longer duration of action and 1/10 of its analgesic potency.
Pancuronium bromide (0.1 mg per kg) was given to facilitate endotracheal intubation. Anesthesia was maintained by supplementary doses of phenoperidine and droperidol, as required. […] Phenoperidine was supplemented regularly to prevent the blood pressure from exceeding the preanesthetic level (approx. 1 mg/30-60 min). Controlled hyperventilation was employed with a humidified gas mixture of 60% N2 O in oxygen to maintain PaCO2 values at approximately 30 mmHg (±1.5/SEM). Mannitol (1-1.5 g. per kg) was given routinely at the start of the operation (e.g., 1-2 hours prior to the controlled hypotension). The patients were operated on in the horizontal supine position.
A 1.2-mm plastic cannula was introduced into the left radial artery to monitor systemic arterial blood pressure (MABP) and collect arterial blood. A balloon-tipped, flow-directed, quadruple lumen Swan-Ganz catheter (Model 93A-831-7.5 F, VIP) was inserted percutaneously via the left basilic vein, and its correct position in the pulmonary artery was determined by pressure tracings. The catheter was used for the monitoring of mean right atrial pressure (RAP), mean pulmonary artery pressure (PAP), and mean pulmonary capillary wedge pressure (PCWP) for the determination of cardiac output and collection of mixed venous blood and for the infusion of adenosine. Another plastic cannula was introduced percutaneously, in a retrograde direction, into the right jugular bulb for the collection of blood. The correct position was verified by x-ray.
The ECG was monitored with a standard chest (V5) lead. Heart rate was determined from the R-R interval. Blood pressures were measured by transducers placed at the midthoracic level. Cardiac output (QT) was determined in triplicate according to the thermodilution technique with a cardiac output computer (Edwards Lab, model 9510). Isotonic glucose, 10 ml at 1° C., was used as a thermal indicator. The ECG, heart rate, blood pressures, and thermodilution curves were recorded on a Grass® polygraph.
as §2, §3, §4
Systemic vascular resistance (SVR) was derived from the formula [formula] and pulmonary vascular resistance (PVR) from the formula [formula]
as §5

[4] = Plasma level of dipyridamole (HPLC); assay type: in vivo, human; details: 0.3-0.4 mg/kg iv over 5-10 min; SEM; read-out: dipyridamole plasma level during hypotensive periods
Description: as §1, §3

[5] = tested on: adenosine uptake by red blood cells; details: cited from earlier work
heart muscle = details: injection; cited from earlier work
[6] = tested on: mean arterial blood pressure; details: dipyridamole 1 mg/kg, dogs; cited from earlier work
[7] = during / after adenosine infusion, in words
[8] = read-out: Purine level in arterial plasma, after hypotension, 20-40 min, 20-40 min after hypotension
[9] = read-out: Purine level in arterial plasma, during hypotension, during i.v. adenosine infusion, dipyridamole-pretreated
[10] = CPB 10', adenosine infusion 0.1 mg/kg/min, n = 6
[11] = CPB 20', adenosine infusion 0.1 mg/kg/min, n = 6
[12] = CPB 40', adenosine infusion 0.1 mg/kg/min, n = 6
[13] = CPB 80', adenosine infusion 0.1 mg/kg/min, n = 6
[14] = human, venous plasma, iv, 0.1 mg/kg/min, Venous concentration

O=c1[nH]cnc2nc[nH]c12 [Hypoxanthine, hypoxanthine]
change of adenosine metabolite levels ([1]; in vivo): increased during the infusion
Arterial concentration ([2]; in vivo): 4.2 ± 0.9 µM

COc1cc2nc(N3CCN(C(=O)c4ccco4)CC3)nc(N)c2cc1OC [prazosin]
heart rate (cardiovascular system; in vivo): increase heart rate
onset and predictability of action (cardiovascular system; in vivo): slow onset and unpredictable action

FC(F)OC(Cl)C(F)(F)F (stereo not drawn) [isoflurane]
cardiac blood flow (cardiovascular system; in vivo): tendency to reduce cardiac blood flow
coronary flow / coronary blood flow (myocardial blood flow): no beneficial effect; also recorded: may reduce coronary blood flow

O=c1[nH]c(=O)c2[nH]cnc2[nH]1 [Xanthine, xanthine]
change of adenosine metabolite levels ([1]; in vivo): unaffected

CCCCC[C@H](O)/C=C/[C@@H]1[C@H]2C/C(=C/CCCC(=O)O)O[C@H]2C[C@H]1O [prostacyclin]
systemic vasodilation and hypotension (cardiovascular system; coronary bypass surgery): severe systemic vasodilation and hypotension

NNc1nncc2ccccc12 [hydralazine]
heart rate (cardiovascular system; in vivo): increase heart rate

O=c1[nH]c(=O)c2[nH]c(=O)[nH]c2[nH]1 [Uric Acid, uric acid]
change of adenosine metabolite levels [1, 7]: unaffected
concentration [1, 8]: 200000 ± 28800 nM
concentration [1, 9]: 198000 ± 22700 nM
Arterial concentration ([2]; 20' post CPB, n = 6): 260 ± 34 µM
Arterial concentration [2, 10]: 260 ± 32 µM
Arterial concentration [2, 11]: 269 ± 35 µM
Arterial concentration [2, 12]: 250 ± 32 µM
Arterial concentration [2, 13]: 249 ± 30 µM

OC[C@H]1O[C@@H](n2cnc3c(O)ncnc32)[C@H](O)[C@@H]1O [Inosine, inosine]
change of adenosine metabolite levels [1, 7]: remained slightly above basal levels 20-40 minutes after the infusion
change of adenosine metabolite levels ([1]; during / after adenosine infusion, in words, listed as inosine): increased during the infusion
concentration ([1]; read-out: Purine level in arterial plasma, after hypotension, 3-9 min, 3-9 min after hypotension): 690 ± 260 nM
concentration [1, 8]: 290 ± 150 nM
concentration [1, 9]: 3010 ± 1480 nM
Arterial concentration ([2]; 20' post CPB, n = 6): 0.4 ± 0.1 µM
Arterial concentration [2, 10]: 1.3 ± 0.7 µM
Arterial concentration [2, 11]: 2.5 ± 1.0 µM
Arterial concentration [2, 12]: 1.2 ± 0.3 µM
Arterial concentration [2, 13]: 1.4 ± 0.4 µM
concentration at 10 min [2, 14]: 900 ± 300 nM
concentration at 40 min [2, 14]: 1600 ± 500 nM
concentration at 80 min [2, 14]: 1600 ± 400 nM
metabolite elevation during infusion ([2]; in vivo): consistently elevated
concentration ([2]; 20' post CPB, n = 6): 400 ± 100 nM
concentration [2, 11]: 2400 ± 1200 nM

OCCN(CCO)c1nc(N2CCCCC2)c2nc(N(CCO)CCO)nc(N3CCCCC3)c2n1 [dipyridamole]
decrease of MABP by dipyridamole infusion [3]: approximately 10 mmHg
concentration [4]: 1200 ± 300 nM
adenosine uptake inhibition [5]: inhibiting cellular uptake of adenosine
adenosine uptake inhibition ([5]; listed as Dipryridamol): adenosine uptake inhibitor
redistribution of flow within heart muscle (heart muscle): augment the redistribution of flow within the heart muscle
reduction of mean arterial blood pressure by dipyridamole [6]: 20%
